Values quoted from earlier work as cited in patent EP4778980A1, “SILICONE MATERIAL, SILICONE TUBE, IMPLANT AND PREPARATION METHOD THEREFOR, ROD CORE, PERFORATED IMPLANT AND PREPARATION METHOD THEREFOR AND USE THEREOF” (SHENYANG XINGHUA PHARMACEUTICAL TECHNOLOGY CO., LTD, priority 2023, dated 2025).

In the case of Cc1nc2n(c(=O)c1CCN1CCC(c3noc4cc(F)ccc34)CC1)CCCC2O (stereo not shown) [Paliperidone], the solubility is given as “Paliperidone (98% purity) Mw = 426.48, 0.05 mg/ml”.
